Experimental findings from paper doi:10.1101/2021.10.07.463234v2 (biorxiv, 2021) are described below.

The structures appear in SMILES notation. Structures can show the parent of a compound that is named as a salt.

The first assay addresses SARS-CoV-2 Mac1 (Severe acute respiratory syndrome coronavirus 2, UniProt P0DTD1). Kind of assay: biochemical. Particulars: 100 µM; inhibitor.
Consider `Cc1cn(-c2cc(NC(=O)c3ccc(C)c(Nc4nccc(-c5cccnc5)n4)c3)cc(C(F)(F)F)c2)cn1` [Nilotinib (AMN-107)], for which the %inhibition (in general, the share of the control response that was lost under treatment) was 40.49%.

For the compound `Cc1cn(-c2cc(NC(=O)c3ccc(C)c(Nc4nccc(-c5cccnc5)n4)c3)cc(C(F)(F)F)c2)cn1` [Nilotinib hydrochloride], the “%inhibition” value stood at 3.764%.

Take `COC(=O)c1ccc2c(C(=Nc3ccc(N(C)C(=O)CN4CCN(C)CC4)cc3)c3ccccc3)c(O)[nH]c2c1` [Nintedanib (BIBF 1120)]: the “%inhibition” value was found to be 17.91%.

The same assay, now with this note: read-out: %inhibition.
With `NC[C@@H]1O[C@H](O[C@H]2[C@@H](O)[C@H](O[C@@H]3[C@@H](O)[C@H](N)C[C@H](N)[C@H]3O[C@H]3O[C@H](CN)[C@@H](O)[C@H](O)[C@H]3N)O[C@@H]2CO)[C@H](N)[C@@H](O)[C@@H]1O` [Neomycin sulfate], the inhibition – broadly, the relative decrease from the control value, in per cent – at 100 µM worked out at 0%.

Consider `CN(C)C(=O)Oc1cccc([N+](C)(C)C)c1` [Neostigmine Bromide], for which the inhibition at 100 µM amounted to 0%.

For `NC(=O)Cc1cccc(C(=O)c2ccccc2)c1N` [Nepafenac], the inhibition at 100 µM came to 0%.

Consider `CCOc1cc2ncc(C#N)c(Nc3ccc(OCc4ccccn4)c(Cl)c3)c2cc1NC(=O)/C=C/CN(C)C` [Neratinib (HKI-272)], for which the inhibition at 100 µM was found to be 4.82%.

For `CCCCCOc1ccccc1/C(=C\SC)n1ccnc1` [Neticonazole Hydrochloride], the inhibition at 100 µM is 0%.

Take `CCN[C@@H]1C[C@H](N)[C@@H](O[C@H]2OC(CN)=CC[C@H]2N)[C@H](O)[C@H]1O[C@H]1OC[C@](C)(O)[C@H](NC)[C@H]1O` [Netilmicin Sulfate]: the inhibition at 100 µM is 0%.

On to `Cc1ccccc1-c1cc(N2CCN(C)CC2)ncc1N(C)C(=O)C(C)(C)c1cc(C(F)(F)F)cc(C(F)(F)F)c1` [Netupitant], for which the inhibition at 100 µM is 6.47%.

In the case of `Cc1ccnc2c1NC(=O)c1cccnc1N2C1CC1` [Nevirapine], the inhibition at 100 µM was 20.6%.

For `O=C(CCNNC(=O)c1ccncc1)NCc1ccccc1` [Nialamide], the inhibition at 100 µM is 25%.

With `COC(=O)C1=C(C)NC(C)=C(C(=O)OCCN(C)Cc2ccccc2)C1c1cccc([N+](=O)[O-])c1` (stereo not drawn) [Nicardipine], the inhibition at 100 µM came out at 0%.

As for `O=C(NCCO[N+](=O)[O-])c1cccnc1` [Nicorandil], the inhibition at 100 µM was 15.7%.

Regarding `NC(=O)c1cccnc1` [Nicotinamide (Vitamin B3)], the inhibition at 100 µM turned out to be 16%.

As to `CN1CCC[C@H]1c1cccnc1` [Nicotine Ditartrate], the inhibition at 100 µM was 0%.

Consider `O=C(O)c1cccnc1` [Nicotinic Acid], for which the inhibition at 100 µM came out at 28.8%.

On to `COC(=O)C1=C(C)NC(C)=C(C(=O)OC)C1c1ccccc1[N+](=O)[O-]` [Nifedipine], for which the inhibition at 100 µM turned out to be 16%.

With `Cc1c(NC(=O)c2cccnc2)c(=O)n(-c2ccccc2)n1C` [Nifenazone], the inhibition at 100 µM is 3.55%.

Turning to `O=C(O)c1cccnc1Nc1cccc(C(F)(F)F)c1` [Niflumic acid], the inhibition at 100 µM was determined as 11%.

Regarding `O=C(N/N=C/c1ccc([N+](=O)[O-])o1)c1ccc(O)cc1` [Nifuroxazide], the inhibition at 100 µM was found to be 0.953%.

In the case of `CCN(CC)C(=O)c1cccnc1` [Nikethamide], the inhibition at 100 µM was 0%.

As to `CC1(C)NC(=O)N(c2ccc([N+](=O)[O-])c(C(F)(F)F)c2)C1=O` [Nilutamide], the inhibition at 100 µM was 3.89%.

As to `COC(=O)C1=C(C#N)NC(C)=C(C(=O)OC(C)C)C1c1cccc([N+](=O)[O-])c1` (stereo not drawn) [Nilvadipine], the inhibition at 100 µM was 0%.

For `CS(=O)(=O)Nc1ccc([N+](=O)[O-])cc1Oc1ccccc1` [Nimesulide], the inhibition at 100 µM was found to be 0%.

Take `COCCOC(=O)C1=C(C)NC(C)=C(C(=O)OC(C)C)C1c1cccc([N+](=O)[O-])c1` (stereo not drawn) [Nimodipine]: the inhibition at 100 µM amounted to 21.8%.

On to `Cc1ncc(CNC(=O)N(CCCl)N=O)c(N)n1` [Nimustine Hydrochloride], for which the inhibition at 100 µM came out at 0%.
